Laboratory results: patent publication US8802678B2, “Carbonylated (aza) cyclohexanes as dopamine D3 receptor ligands” (Bioprojet, priority 2006, dated 2014)

Row | Structure (SMILES) | melting point [°C]
1 | CS(=O)(=O)CC(=O)N[C@H]1CC[C@H](CCN2CCN(c3cccc(C(F)(F)F)c3)CC2)CC1 [Example 337, 2-Methanesulfonyl-N-(4-{2-[4-(3-trifluoromethylphenyl)piperazin-1-yl]ethyl}cyclohexyl)acetamide] | 158
2 | O=C(N[C@H]1CC[C@H](CCN2CCN(c3ccc(F)cc3F)CC2)CC1)C1=COCC1 [Example 527, 4,5-Dihydrofuran-3-carboxylic acid (4-{2-[4-(2,4-difluorophenyl)piperazin-1-yl]ethyl}cyclohexyl) amide] | 192
3 | CC(=O)CN1CCC(CCN2CC=C(c3cccc4c3CCC4)CC2)CC1.Cl.Cl | 291
4 | N#CCCC(F)(F)C(=O)N[C@H]1CC[C@H](CCN2CCN(c3cccc(C(F)(F)F)c3F)CC2)CC1 [Example 460, 4-Cyano-2,2-difluoro-N-(4-{2-[4-(2-fluoro-3-trifluoromethyl-phenyl)piperazin-1-yl]ethyl}cyclohexyl)butanamide] | 151
5 | CC(=O)CN1CCC(CCN2CCN(c3cc(Cl)ccc3Cl)CC2)CC1.Cl.Cl | 172
6 | Cc1cc(N2CCN(CC[C@H]3CC[C@H](NC(=O)CC#N)CC3)CC2)ccc1F [Example 322, 2-Cyano-N-(4-{2-[4-(4-fluoro-3-methylphenyl)piperazin-1-yl]ethyl}cyclohexyl)acetamide] | 192
7 | Cc1c(N2CCN(CC[C@H]3CC[C@H](NC(=O)CCCC#N)CC3)CC2)cccc1C(F)(F)F [Example 230, 4-Cyano-N-(4-{2-[4-(2-methyl-3-trifluoromethylphenyl)piperazin-1-yl]ethyl}cyclohexyl)butanamide] | 162
8 | N#CCCCC(=O)N[C@H]1CC[C@H](CCN2CCN(c3ccc(Cl)c(C(F)(F)F)c3)CC2)CC1 [Example 756, N-(4-{2-[4-(4-Chloro-3-trifluoromethylphenyl)piperazin-1-yl]ethyl}cyclohexyl)-4-cyanobutanamide] | 126
9 | Cc1ccc(N2CCN(CC[C@H]3CC[C@H](NC(=O)CC#N)CC3)CC2)cc1 [Example 242, 2-Cyano-N-{4-[2-(4-p-tolylpiperazin-1-yl)ethyl]cyclohexyl}acetamide] | 237
10 | NC(=O)CCC(=O)N[C@H]1CC[C@H](CCN2CCN(c3cccc(F)c3)CC2)CC1 [Example 397, N-(4-{2-[4-(3-Fluorophenyl)-piperazin-1-yl]ethyl}cyclohexyl)-succinamide] | 255
11 | N#CCC(=O)N[C@H]1CC[C@H](CCN2CCC(c3cc(C(F)(F)F)cc(C(F)(F)F)c3)CC2)CC1 [Example 200, N-(4-{2-[4-(3,5-Bis-trifluoro-methylphenyl)piperidin-1-yl]ethyl}cyclohexyl)-2-cyanoacetamide] | 164
12 | O=C(N[C@H]1CC[C@H](CCN2CCN(c3cccc(C(F)(F)F)c3)CC2)CC1)C(F)(F)F [Example 38, 2,2,2-Trifluoro-N-(4-{2-[4-(3-trifluoromethylphenyl)piperazin-1-yl]ethyl}cyclohexyl)acetamide] | 134
13 | O=C(N[C@H]1CC[C@H](CCN2CCN(c3cccc(C(F)(F)F)c3)CC2)CC1)C1CC=CC1 [Example 52, Cyclopent-3-enecarboxylic acid (4-{2-[4-(3-trifluoromethylphenyl)-piperazin-1-yl]ethyl}cyclohexyl)-amide] | 183
14 | N#CCCCC(=O)N[C@H]1CC[C@H](CCN2CCN(c3ccccc3Cl)CC2)CC1 [Example 233, N-(4-{2-[4-(2-Chlorophenyl)piperazin-1-yl]ethyl}cyclohexyl)-4-cyanobutanamide] | 142
15 | N#CCC(=O)N[C@H]1CC[C@H](CCN2CCN(c3cccc(F)c3F)CC2)CC1 [Example 113, 2-Cyano-N-(4-{2-[4-(2,3-difluorophenyl)piperazin-1-yl]ethyl}cyclohexyl)acetamide] | 190
16 | CC(=O)CN1CCC(CCN2CCN(c3ccc(Cl)cc3)CC2)CC1.Cl.Cl | 277
17 | CCC(=O)C(=O)N[C@H]1CC[C@H](CCN2CCN(c3ccccc3F)CC2)CC1 [Example 89, N-(4-{2-[4-(2-Fluorophenyl)-piperazin-1-yl]ethyl}cyclohexyl)-2-oxobutanamide] | 156
18 | CC(=O)CN1CCC(CCN2CCN(c3cc(C(F)(F)F)ccc3F)CC2)CC1.Cl.Cl | 230

Now from value to compound:

Row | melting point [°C] | Structure (SMILES)
19 | 147 | COc1cc(N2CCN(CC[C@H]3CC[C@H](NC(=O)CCCC#N)CC3)CC2)cc(C(F)(F)F)c1 [Example 421, 4-Cyano-N-(4-{2-[4-(3-methoxy-5-trifluoromethylphenyl)piperazin-1-yl]ethyl}cyclohexyl)butanamide]
20 | 156 | N#CCC(=O)N[C@H]1CC[C@H](CCN2CC=C(c3ccccc3F)CC2)CC1
21 | 119 | Cc1cc(C)cc(N2CCN(CC[C@H]3CC[C@@H](NC(=O)CC#N)CC3)CC2)c1 [Example 336, 2-Cyano-N-(4-{2-[4-(3,5-dimethylphenyl)piperazin-1-yl]ethyl}cyclohexyl)acetamide]
22 | 133 | CCOCC(=O)N[C@H]1CC[C@H](CCN2CCN(c3cc(F)c(F)c(F)c3)CC2)CC1 [Example 465, 2-Ethoxy-N-(4-{2-[4-(3,4,5-trifluorophenyl)piperazin-1-yl]ethyl}cyclohexyl)acetamide]
23 | 165 | N#CCCCC(=O)N[C@H]1CC[C@H](CCN2CCN(c3ccc(C(F)(F)F)cc3F)CC2)CC1 [Example 646, 4-Cyano-N-(4-{2-[4-(2-fluoro-4-trifluoromethylphenyl)piperazin-1-yl]ethyl}cyclohexyl)-butanamide]
24 | 159 | COCC(=O)N[C@H]1CC[C@H](CCN2CCN(c3cccc(C(F)(F)F)c3C)CC2)CC1 [Example 734, 2-Methoxy-N-(4-{2-[4-(2-methyl-3-trifluoromethylphenyl)piperazin-1-yl]ethyl}cyclohexyl)acetamide]
25 | 158 to 159 | N#CCCC(=O)N[C@H]1CC[C@H](CCN2CCN(c3cc(C(F)(F)F)cc(C(F)(F)F)c3)CC2)CC1 [Example 213, N-(4-{2-[4-(3,5-Bistrifluoromethylphenyl)piperazin-1-yl]ethyl}cyclohexyl)-3-cyanopropanamide]
26 | 173 | CC(=O)N1CCC(C(=O)N[C@H]2CC[C@H](CCN3CCN(c4cccc(C(F)(F)F)c4)CC3)CC2)CC1 [Example 153, 1-Acetylpiperidine-4-carboxylic acid (4-{2-[4-(3-trifluoro-methylphenyl)piperazin-1-yl]ethyl}cyclohexyl)amide]
27 | 350 | CC(=O)CN1CCC(CCN2CCN(c3cc(C)ccc3C)CC2)CC1.Cl.Cl
28 | 210 | Cl.N#CCCCC(=O)N1CCC(CCN2CCN(c3cccc4c3CCC4)CC2)CC1
29 | 265 | CC(=O)CN1CCC(CCN2CCN(c3cccc(C(F)F)c3)CC2)CC1.Cl.Cl
30 | 94 | CC(=O)CN1CCC(CCN2CC=C(c3cccc(C#N)c3)CC2)CC1
31 | 183 | N#CCC(=O)N[C@H]1CC[C@H](CCN2CCN(c3cccc(Cl)c3F)CC2)CC1 [Example 185, N-(4-{2-[4-(3-Chloro-2-fluorophenyl)piperazin-1-yl]ethyl}cyclohexyl)-2-cyanoacetamide]
32 | 72 | CC(=O)CN1CCC(CCN2CC=C(c3ccc(F)cc3)CC2)CC1
33 | 77 | CCN(CC)CCC(=O)N[C@H]1CC[C@H](CCN2CCN(c3cccc(C(F)(F)F)c3)CC2)CC1 [Example 167, 3-Diethylamino-N-(4-{2-[4-(3-trifluoromethylphenyl)piperazin-1-yl]ethyl}cyclohexyl)propanamide trans/cis 85/15]
34 | 162 | Cc1cccc(N2CCN(CC[C@H]3CC[C@H](NC(=O)CCCC#N)CC3)CC2)c1C [Example 429, 4-Cyano-N-(4-{2-[4-(2,3-dimethylphenyl)piperazin-1-yl]ethyl}cyclohexyl)butanamide]
35 | 225 | N#CCC(=O)N[C@H]1CC[C@H](CCN2CCN(c3cccc4cccnc34)CC2)CC1 [Example 237, 2-Cyano-N-{4-[2-(4-quinolin-8-ylpiperazin-1-yl)ethyl]-cyclohexyl}acetamide]
36 | 156 | O=C(CC(F)(F)F)N[C@H]1CC[C@H](CCN2CCN(c3cccc(C(F)(F)F)c3)CC2)CC1 [Example 63, 3,3,3-Trifluoro-N-(4-{2-[4-(3-trifluoromethylphenyl)piperazin-1-yl]ethyl}cyclohexyl)propanamide]
37 | 197 | N#CCC(=O)N[C@H]1CC[C@H](CCN2CCN(c3cc(C(F)(F)F)ccc3F)CC2)CC1 [Example 174, 2-Cyano-N-(4-{2-[4-(2-fluoro-5-trifluoromethylphenyl)piperazin-1-yl]ethyl}cyclohexyl)acetamide]
38 | 109 to 110 | O=C(C=C1CCC(CCN2CCN(c3ccccc3F)CC2)CC1)N1CCCC1 (stereo not drawn) [Example 301, 2-(4-{2-[4-(2-Fluorophenyl)-piperazin-1-yl]ethyl}cyclohexylidene)-1-pyrrolidin-1-ylethanone]
39 | 204 | O=C(N[C@H]1CC[C@H](CCN2CCN(c3ccccc3F)CC2)CC1)C1CC=CC1 [Example 70, Cyclopent-3-enecarboxylic acid (4-{2-[4-(2-fluorophenyl)-piperazin-1-yl]ethyl}-cyclohexyl)amide trans/cis 95/5]
40 | 151 | CCC(O)c1cccc(N2CCN(CC[C@H]3CC[C@H](NC(=O)CCCC#N)CC3)CC2)c1 (stereo partly drawn) [Example 540, 4-cyano-N-[4-(2-{4-[3-(1-hydroxypropyl)phenyl]piperazin-1-yl}ethyl)cyclohexyl]butanamide]
41 | 188 | CC(C)(C)c1nc(N2CCN(CC[C@H]3CC[C@H](NC(=O)CC#N)CC3)CC2)cc(C(F)(F)F)n1 [Example 177, N-(4-{2-[4-(2-tert-Butyl-6-trifluoromethylpyrimidin-4-yl)piperazin-1-yl]ethyl}cyclohexyl)-2-cyanoacetamide trans/cis 85/15]
42 | 199 | O=C(N[C@H]1CC[C@H](CCN2CCN(c3ccc(F)cc3F)CC2)CC1)C1CC=CC1 [Example 494, Cyclopent-3-enecarboxylic acid (4-{2-[4-(2,4-difluorophenyl)-piperazin-1-yl]ethyl}cyclohexyl) amide]
